Values after ≈ are worked out from the molar mass of the structure shown.
Tested on: P388
Test: Cytotoxicity against mouse P388 cells by MTT assay
Assay type: functional
Conditions: read-out: ED50 (the source's name)

| SMILES | EC50 [µg/mL] |
| --- | --- |
| C=C1CC[C@H](C(C)C)[C@@H]2[C@H]1[C@@H]1CC(=C)[C@@H](O)CC[C@](C)(O)[C@H]2O1 [CLADIELLISIN] | 2 (≈ 6.24 µM) |
| CC(=O)OC(C)(C)[C@H]1C=C2[C@@H](C)CC[C@@H](O)[C@]2(C)CC1 [JUNCEOL A] | 5.1 (≈ 18.2 µM) |
| C=C1CC[C@H](C(C)C)[C@@H]2[C@H]1[C@H]1C[C@](C)(O)[C@@H](O)CC[C@@](C)(O)[C@@H]2O1 [SCLEROPHYTIN A] | 2.3 (≈ 6.79 µM) |

Source: ChEMBL document CHEMBL1156349, “Junceol A, a new sesquiterpenoid from the sea pen Virgularia juncea” (2001)
